Results reported in US20140135270A1, “MACROCYCLIC COMPOUNDS FOR INHIBITION OF INHIBITORS OF APOPTOSIS” (Ensemble Therapeutics Corp., priority 2012, published 2014).
pIC50: −log10 of the molar value.

Experiments:
[1] = biological target: T1, His-BIR3 (241-356, XIAP) (Homo sapiens, UniProt P98170); assay: XIAP-BIR3/SMAC Homogeneous Time Resolved Fluorescence (HTRF) Assay; assay type: binding; details: fluorescein labeled SMAC peptide
T1 construct: additions of His-BIR3 (241-356, XIAP), fluorescein labeled SMAC peptide
T1 sequence (P98170 241-356): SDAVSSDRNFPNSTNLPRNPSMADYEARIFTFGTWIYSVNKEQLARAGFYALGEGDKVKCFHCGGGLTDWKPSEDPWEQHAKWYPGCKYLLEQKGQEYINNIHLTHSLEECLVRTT

[2] = biological target: T2, His-BIR2-3 (125-356, C202A/C213G, XIAP) (Homo sapiens, UniProt P98170, C202A/C213G); assay: XIAP-BIR2-3 Dimeric SMAC Peptide Homogeneous Time Resolved Fluorescence (HTRF) Assay; assay type: binding; details: fluorescein labeled dimeric SMAC peptide
T2 construct: additions of His-BIR2-3 (125-356, C202A/C213G, XIAP), fluorescein labeled dimeric SMAC peptide
T2 sequence (P98170 125-356 C202A/C213G): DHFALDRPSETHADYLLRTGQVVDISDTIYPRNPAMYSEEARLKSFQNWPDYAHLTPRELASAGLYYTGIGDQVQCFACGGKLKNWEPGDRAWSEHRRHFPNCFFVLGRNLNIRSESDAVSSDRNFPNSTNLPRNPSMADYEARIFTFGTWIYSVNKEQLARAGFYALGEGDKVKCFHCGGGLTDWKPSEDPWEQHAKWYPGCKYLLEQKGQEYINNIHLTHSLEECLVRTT

CN[C@@H](C)C(=O)N[C@@H](CC(N)=O)C(=O)N1C[C@@H]2C[C@H]1C(=O)N[C@@H](Cc1ccc3ccccc3c1)C(=O)N[C@H](C(=O)O)Cc1ccc(cc1)C(=O)N[C@H]1C[C@@H](C(=O)N[C@@H](Cc3ccc4ccccc4c3)C(=O)N[C@H](C(=O)O)Cc3ccc(cc3)OC/C=C/CO2)N(C(=O)[C@@H](NC(=O)[C@H](C)NC)C(C)(C)C)C1 [Example 72] gave a pIC50 [1] of 7.31 and a pIC50 [2] of 8.03.

CN[C@@H](C)C(=O)N[C@H](C(=O)N1CC[C@H]2OCc3cn(nn3)-c3ccc(cc3)C[C@@H](C(=O)O)NC(=O)[C@H](Cc3ccc4ccccc4c3)NC(=O)[C@@H]3C[C@@H](CN3C(=O)[C@@H](NC(=O)[C@H](C)NC)C(C)(C)C)OC/C=C/COc3ccc(cc3)C[C@@H](C(=O)O)NC(=O)[C@H](Cc3ccc4ccccc4c3)NC(=O)[C@H]21)C(C)(C)C [Example 12] gave a pIC50 [1] of 8.92 and a pIC50 [2] of 8.92.

CN[C@@H](C)C(=O)N[C@H](C(=O)N1C[C@@H]2C[C@H]1C(=O)N[C@@H](Cc1ccc3ccccc3c1)C(=O)N[C@H](C(=O)O)Cc1ccc(cc1)OC/C=C/CO[C@H]1C[C@@H](C(=O)N[C@@H](Cc3c[nH]c4ccccc34)C(=O)N[C@H](C(=O)O)Cc3ccc(cc3)C(=O)N2)N(C(=O)[C@@H](NC(=O)[C@H](C)NC)C(C)(C)C)C1)C(C)(C)C [Example 46] showed a pIC50 [1] of 7.62 and a pIC50 [2] of 8.28.

CN[C@@H](C)C(=O)N[C@H](C(=O)N1C[C@@H]2C[C@H]1C(=O)N[C@@H](Cc1ccc3ccccc3c1)C(=O)N[C@H](C(=O)O)Cc1ccc(cc1)OC/C=C/CO[C@H]1C[C@@H](C(=O)N[C@@H](Cc3ccc4ccccc4c3)C(=O)N[C@H](C(=O)NS(=O)(=O)c3ccccn3)Cc3ccc(cc3)OCc3cn2nn3)N(C(=O)[C@@H](NC(=O)[C@H](C)NC)C(C)(C)C)C1)C(C)(C)C [Example 118] showed a pIC50 [1] of 8.20 and a pIC50 [2] of 8.74.

With CN[C@@H](C)C(=O)N[C@H](C(=O)N1C[C@@H]2C[C@H]1C(=O)N[C@@H](Cc1ccc3ccccc3c1)C(=O)N[C@H](C(=O)NS(=O)(=O)C1CC1)Cc1ccc(cc1)OCc1cn(nn1)[C@H]1C[C@@H](C(=O)N[C@@H](Cc3ccc4ccccc4c3)C(=O)N[C@H](C(=O)O)Cc3ccc(cc3)OC/C=C/CO2)N(C(=O)[C@@H](NC(=O)[C@H](C)NC)C(C)(C)C)C1)C1CCOCC1 [Example 109] the pIC50 [1] was 7.35 and the pIC50 [2] was 8.36.

For CN[C@@H](C)C(=O)N[C@H](C(=O)N[C@H]1C/C=C\CC[C@@H](C(=O)O)NC(=O)[C@H](Cc2ccc3ccccc3c2)NC(=O)[C@@H]2CN(CCN2C(=O)[C@@H](NC(=O)[C@H](C)NC)C(C)(C)C)C(=O)CNC(=O)CC[C@@H](C(=O)O)NC(=O)[C@H](Cc2ccc3ccccc3c2)NC1=O)C(C)(C)C [Example 76], the pIC50 [1] was 6.53 and the pIC50 [2] was 7.84.

Work on CN[C@@H](C)C(=O)N[C@H](C(=O)N1C[C@@H]2C[C@H]1C(=O)NC(Cc1ccc3ccccc3c1)C(=O)N[C@H](c1nnn[nH]1)Cc1ccc(cc1)OC/C=C/C[C@H]1C[C@@H](C(=O)N[C@@H](Cc3ccc4ccccc4c3)C(=O)N[C@H](C(=O)O)Cc3ccc(cc3)OCc3cn2nn3)N(C(=O)[C@@H](NC(=O)[C@H](C)NC)C(C)(C)C)C1)C(C)(C)C (stereo partly drawn) [Example 93] yielded a pIC50 [1] of 9.10 and a pIC50 [2] of 9.40.

Work on CN[C@@H](C)C(=O)N[C@@H](Cc1ccccc1)C(=O)N1C[C@@H]2C[C@H]1C(=O)N[C@@H](Cc1ccc3ccccc3c1)C(=O)N[C@H](C(=O)O)CCC(=O)N[C@H]1C[C@@H](C(=O)N[C@@H](Cc3ccc4ccccc4c3)C(=O)N[C@H](C(=O)O)Cc3ccc(cc3)OC/C=C/CO2)N(C(=O)[C@@H](NC(=O)[C@H](C)NC)C(C)(C)C)C1 [Example 60] yielded a pIC50 [1] of 7.10 and a pIC50 [2] of 8.04.

CN[C@@H](C)C(=O)N[C@H](C(=O)N[C@H]1C/C=C/CC[C@@H](C(=O)O)NC(=O)[C@H](Cc2ccccc2)NC(=O)[C@@H]2CN(CCNC(=O)CC[C@@H](C(=O)O)NC(=O)[C@H](Cc3ccccc3)NC1=O)CCN2C(=O)[C@@H](NC(=O)[C@H](C)NC)C(C)C)C(C)C [Example 81] was tested, and the pIC50 [1] was 7.59 and the pIC50 [2] was 8.96.
